The nature of data set [1]: pH dependent hydrolysis of the hydrazone bond (MALDI-TOF-MS). The note with it: HCl solution at pH 3. In kind it is physicochemical.
A further data set has as its system HeLa cells (EGFR+). Nature of the data set: Cell viability (MTS) assay, HeLa cells. Type of data set: cell-based, human. The note with it: co-administered with SO1861 + dianthin-EGF, 500 nM PAMAM (native, thiolated, PEGylated) or chloroquine, 667 nM dendron.
Data set [2] concerns SK-BR-3, JIMT-1, MDA-MB-468, A431, CaSki, HeLa, A2058. Briefly: Control treatments, relative cell viability on various cancer cell lines. Type of data set: cell-based, human. The following applies: toxins up to 100.000 pM.
Method: (§1) After treatment the cells were incubated for 72 hr at 37° C. before the cell viability was determined by a MTS-assay, performed according to the manufacturer's instruction (CellTiter 96@AQueous One Solution Cell Proliferation Assay, Promega). Briefly, the MTS solution was diluted 20× in DMEM without phenol red (PAN-Biotech GmbH) supplemented with 10% FBS (PAN-Biotech GmbH). The cells were washed once with 200 μL PBS per well, after which 100 μL diluted MTS solution was added per well. The plate was incubated for approximately 20-30 minutes at 37° C. Subsequently, the optical density at 492 nm was measured on a Thermo Scientific Multiskan FC plate reader (Thermo Scientific). For quantification the background signal of ‘medium only’ wells was subtracted from all other wells, before the ratio of untreated/treated cells was calculated, by dividing the background corrected signal of untreated wells over the background corrected signal of the treated wells.

Method for HeLa cells (EGFR+): as §1

Regarding `CC(=O)OC1C(C)OC(OC2C(C)OC(OC(=O)[C@]34CCC(C)(C)CC3C3=CCC5[C@@]6(C)CC[C@H](OC7OC(C(=O)O)C(O)C(OC8OCC(O)C(O)C8O)C7OC7OC(CO)C(O)C(O)C7O)[C@@](C)(/C=N/NC(=O)CCCCCN7C(=O)C=CC7=O)C6CC[C@@]5(C)[C@]3(C)C[C@H]4O)C(OC3OC(C)C(OC4OCC(O)C(OC5OC(CO)C(O)C(O)C5O)C4O)C(O)C3O)C2O)C(O)C1OC1OCC(O)C(O)C1O` (stereo partly drawn) [SO1861-EMCH], in data set [1], the “hydrolysis of the hydrazone bond” value is “the hydrazone bond is responsive towards hydrolysis and gets cleaved”. For `CCN(CC)CCCC(C)Nc1ccnc2cc(Cl)ccc12` (stereo not drawn) [chloroquine], the “effect on SO1861-mediated endosomal escape of the targeted toxin and cell killing” value in the data set with HeLa cells (EGFR+) is on record as “inhibit the SO1861-mediated endosomal escape”.

For the compound saporin, in data set [2], the “influence on cell viability” value is “do not or hardly have any influence on cell viability”.

Values taken from patent US20250195682A1, “IMPROVED CELL-TARGETING BINDING MOLECULE” (priority 2018, published 2025).
